Reference: patent publication US6737383B1, “Herbicidal oxadiazolidines” (priority 1999, dated 2004)

Legend:
bedstraw = experiment: Test B pre/postemergence bedstraw; type: in vivo, Galium aparine
Outline: (§1)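 Test chemicals in a non-phytotoxic solvent mixture with surfactant were sprayed preemergence onto planted seeds and postemergence onto plants 2 to 18 cm tall (1- to 4-leaf stage). After twelve to sixteen days in a greenhouse, injury was visually rated against untreated controls from 0 (no effect) to 10 (complete control).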

blackgrass = experiment: Test B pre/postemergence blackgrass; type: in vivo, Alopecurus myosuroides
Outline: as §1

surinam grass = experiment: Test B pre/postemergence surinam grass; type: in vivo, Brachiaria decumbens
Outline: as §1

corn = experiment: Test B pre/postemergence corn; type: in vivo, Zea mays
Outline: as §1

crabgrass = experiment: Test B pre/postemergence crabgrass; type: in vivo, Digitaria sanguinalis
Outline: as §1

giant foxtail = experiment: Test B pre/postemergence giant foxtail; type: in vivo, Setaria faberii
Outline: as §1

rape = experiment: Test B pre/postemergence rape; type: in vivo, Brassica napus
Outline: as §1

sugar beet = experiment: Test B pre/postemergence sugar beet; type: in vivo, Beta vulgaris
Outline: as §1

velvetleaf = experiment: Test B pre/postemergence velvetleaf; type: in vivo, Abutilon theophrasti
Outline: as §1

wheat = experiment: Test B pre/postemergence wheat; type: in vivo, Triticum aestivum
Outline: as §1

wild oat = experiment: Test B pre/postemergence wild oat; type: in vivo, Avena fatua
Outline: as §1

purple nutsedge = experiment: Test B pre/postemergence purple nutsedge; type: in vivo, Cyperus rotundus; conditions: Postemergence
Outline: as §1

rice = experiment: Test B flood test rice; type: in vivo, Oryza sativa
Outline: (§2)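 Each value is a visual injury score relative to controls, with 10 meaning complete control and 0 no effect. Evaluation took place twelve to sixteen days after the 2-leaf-stage plants were treated and kept in the greenhouse.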

smallflower flatsedge = experiment: Test B flood test smallflower flatsedge; type: in vivo, Cyperus difformis
Outline: as §2

duck salad = experiment: Test B flood test duck salad; type: in vivo, Heteranthera limosa
Outline: as §2

bamyardgrass = experiment: Test B flood test barnyardgrass; type: in vivo, Echinochloa crus-galli
Outline: as §2

[1] = Preemergence, Rate 62 g/ha, scale of 0 to 10 where 0 is no effect and 10 is complete control
[2] = Preemergence, Rate 250 g/ha, scale of 0 to 10 where 0 is no effect and 10 is complete control
[3] = Preemergence, Rate 500 g/ha, scale of 0 to 10 where 0 is no effect and 10 is complete control
[4] = Rate 62 g/ha, Postemergence, scale of 0 to 10 where 0 is no effect and 10 is complete control
[5] = Rate 125 g/ha, Postemergence, scale 0 to 10
[6] = Rate 125 g/ha, Preemergence, scale of 0 to 10 where 0 is no effect and 10 is complete control
[7] = Rate 500 g/ha, Postemergence, scale 0 to 10, 0 no effect, 10 complete control
[8] = Rate 62 g/ha, headed Pre-emergence (flood test species), scale 0 to 10 (0 no effect, 10 complete control)
[9] = Rate 125 g/ha, Pre-emergence, flood test species, scale 0 to 10 where 0 is no effect and 10 is complete control
[10] = Rate 250 g/ha, Pre-emergence, flood-test species, scale 0 to 10, 0 is no effect, 10 is complete control
[11] = Rate 500 g/ha, Pre-emergence, flood test species, scale 0 to 10 (0 no effect, 10 complete control)

[2H]C([2H])([2H])n1c(=O)on(C(=O)N(c2ccc(F)cc2)C(C)C)c1=O [Compound 245]
Bedstraw plant response rating (bedstraw; [1]): 0
Bedstraw plant response rating (bedstraw; [2]): 9
Plant response rating, Bedstraw (bedstraw; [3]): 10
Bedstraw plant response rating (bedstraw; [4]): 3
Bedstraw plant response rating (bedstraw; [5]): 9
Bedstraw plant response rating (bedstraw; [6]): 2
Plant response rating (0 to 10; 0 is no effect, 10 is complete control), Bedstraw (bedstraw; Rate 250 g/ha, Postemergence): 9
Bedstraw plant response rating (bedstraw; [7]): 9
Blackgrass plant response rating (blackgrass; [1]): 10
Blackgrass plant response rating (blackgrass; [2]): 10
Plant response rating, Blackgrass (blackgrass; [3]): 10
Blackgrass plant response rating (blackgrass; [4]): 4
Blackgrass plant response rating (blackgrass; [5]): 7
Blackgrass plant response rating (blackgrass; [6]): 10
Plant response rating (0 to 10; 0 is no effect, 10 is complete control), Blackgrass (blackgrass; Rate 250 g/ha, Postemergence): 7
Blackgrass plant response rating (blackgrass; [7]): 8
B. signalgrass plant response rating (surinam grass; [1]): 3
B. signalgrass plant response rating (surinam grass; [2]): 8
Plant response rating, B. signalgrass (surinam grass; [3]): 10
B. signalgrass plant response rating (surinam grass; [4]): 1
B. signalgrass plant response rating (surinam grass; Rate 125 g/ha, Postemergence, scale 0 (no effect) to 10 (complete control)): 4
B. signalgrass plant response rating (surinam grass; [6]): 7
Plant response rating (0 to 10; 0 is no effect, 10 is complete control), B. signalgrass (surinam grass; Rate 250 g/ha, Postemergence): 6
B. signalgrass plant response rating (surinam grass; [7]): 8
Corn plant response rating (corn; [1]): 3
Corn plant response rating (corn; [2]): 7
Plant response rating, Corn (corn; [3]): 8
Corn plant response rating (corn; [4]): 0
Corn plant response rating (corn; [5]): 4
Corn plant response rating (corn; [6]): 5
Plant response rating (0 to 10; 0 is no effect, 10 is complete control), Corn (corn; Rate 250 g/ha, Postemergence): 5
Corn plant response rating (corn; [7]): 7
Crabgrass plant response rating (crabgrass; [1]): 9
Crabgrass plant response rating (crabgrass; [2]): 9
Plant response rating, Crabgrass (crabgrass; [3]): 10
Crabgrass plant response rating (crabgrass; [4]): 2
Crabgrass plant response rating (crabgrass; [6]): 9
Plant response rating (0 to 10; 0 is no effect, 10 is complete control), Crabgrass (crabgrass; Rate 250 g/ha, Postemergence): 8
Crabgrass plant response rating (crabgrass; [7]): 8
Giant foxtail plant response rating (giant foxtail; [1]): 9
Giant foxtail plant response rating (giant foxtail; [2]): 10
Plant response rating, Giant foxtail (giant foxtail; [3]): 10
Giant foxtail plant response rating (giant foxtail; [4]): 5
Giant foxtail plant response rating (giant foxtail; [6]): 9
Plant response rating (0 to 10; 0 is no effect, 10 is complete control), Giant foxtail (giant foxtail; Rate 250 g/ha, Postemergence): 8
Giant foxtail plant response rating (giant foxtail; [7]): 8
Rape plant response rating (rape; [1]): 3
Rape plant response rating (rape; [2]): 10
Plant response rating, Rape (rape; [3]): 10
Rape plant response rating (rape; [4]): 0
Rape plant response rating (rape; [6]): 4
Plant response rating (0 to 10; 0 is no effect, 10 is complete control), Rape (rape; Rate 250 g/ha, Postemergence): 2
Rape plant response rating (rape; [7]): 5
Sugarbeets plant response rating (sugar beet; [1]): 3
Sugarbeets plant response rating (sugar beet; [2]): 10
Plant response rating, Sugarbeets (sugar beet; [3]): 10
Sugarbeets plant response rating (sugar beet; [4]): 1
Sugarbeets plant response rating (sugar beet; [6]): 8
Sugarbeets plant response rating (sugar beet; [7]): 7
Velvetleaf plant response rating (velvetleaf; [1]): 7
Velvetleaf plant response rating (velvetleaf; [2]): 10
Plant response rating, Velvetleaf (velvetleaf; [3]): 10
Velvetleaf plant response rating (velvetleaf; [4]): 3
Velvetleaf plant response rating (velvetleaf; [6]): 7
Velvetleaf plant response rating (velvetleaf; [7]): 7
Wheat plant response rating (wheat; [1]): 6
Wheat plant response rating (wheat; [2]): 7
Plant response rating, Wheat (wheat; [3]): 9
Wheat plant response rating (wheat; [4]): 4
Wheat plant response rating (wheat; [6]): 6
Wheat plant response rating (wheat; [7]): 8
Wild oats plant response rating (wild oat; [1]): 3
Wild oats plant response rating (wild oat; [2]): 10
Plant response rating, Wild oats (wild oat; [3]): 10
Wild oats plant response rating (wild oat; [4]): 0
Wild oats plant response rating (wild oat; [6]): 5
Wild oats plant response rating (wild oat; [7]): 8
Nutsedge plant response rating (purple nutsedge; Rate 62 g/ha, scale of 0 to 10 where 0 is no effect and 10 is complete control): 0
Plant response rating (0 to 10; 0 is no effect, 10 is complete control), Nutsedge (purple nutsedge; Rate 250 g/ha): 0
Nutsedge plant response rating (purple nutsedge; Rate 500 g/ha, scale 0 to 10, 0 no effect, 10 complete control): 0
Rice plant response rating (rice; [8]): 0
Rice plant response rating (rice; [9]): 0
Rice plant response rating (rice; [10]): 0
Rice plant response rating (rice; [11]): 0
S. Flatsedge plant response rating (smallflower flatsedge; [8]): 0
S. Flatsedge plant response rating (smallflower flatsedge; [9]): 0
S. Flatsedge plant response rating (smallflower flatsedge; [10]): 0
S. Flatsedge plant response rating (smallflower flatsedge; [11]): 0
Ducksalad plant response rating (duck salad; [8]): 0
Ducksalad plant response rating (duck salad; [9]): 0
Ducksalad plant response rating (duck salad; [10]): 0
Ducksalad plant response rating (duck salad; [11]): 0
Barnyardgrass plant response rating (bamyardgrass; [8]): 0
Barnyardgrass plant response rating (bamyardgrass; [9]): 0
Barnyardgrass plant response rating (bamyardgrass; [10]): 0
Barnyardgrass plant response rating (bamyardgrass; [11]): 0
